ChEMBL document CHEMBL1201862, “PubChem BioAssay data set” (2004)
Activity calls are given as the source filed them.

Assays:
[1] = target: NAD-dependent protein deacylase sirtuin-5, mitochondrial (Homo sapiens, UniProt Q9NXA8); assay: SIRT5 desuccinylase inhibitors, dose response, biochemical, fluorescence imaging, cherry-pick, set 5 (AID 720591);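 also: desuccinylation of succinyl peptide AMC substrate read as fluorescence after trypsin release; potency of inhibitors that lower fluorescence and may act on trypsin instead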
Sequence of NAD-dependent protein deacylase sirtuin-5, mitochondrial (Q9NXA8 whole entry): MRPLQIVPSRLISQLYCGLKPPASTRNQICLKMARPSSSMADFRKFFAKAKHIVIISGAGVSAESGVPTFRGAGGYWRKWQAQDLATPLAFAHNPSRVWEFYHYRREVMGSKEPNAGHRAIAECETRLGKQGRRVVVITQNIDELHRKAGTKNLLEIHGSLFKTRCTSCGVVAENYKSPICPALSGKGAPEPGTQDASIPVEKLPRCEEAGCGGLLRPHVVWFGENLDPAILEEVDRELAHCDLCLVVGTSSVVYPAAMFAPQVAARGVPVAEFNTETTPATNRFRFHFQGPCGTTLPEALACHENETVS

[2] = target: Induced myeloid leukemia cell differentiation protein Mcl-1 (Homo sapiens, UniProt Q07820); type: functional
Sequence of Induced myeloid leukemia cell differentiation protein Mcl-1 (Q07820 whole entry): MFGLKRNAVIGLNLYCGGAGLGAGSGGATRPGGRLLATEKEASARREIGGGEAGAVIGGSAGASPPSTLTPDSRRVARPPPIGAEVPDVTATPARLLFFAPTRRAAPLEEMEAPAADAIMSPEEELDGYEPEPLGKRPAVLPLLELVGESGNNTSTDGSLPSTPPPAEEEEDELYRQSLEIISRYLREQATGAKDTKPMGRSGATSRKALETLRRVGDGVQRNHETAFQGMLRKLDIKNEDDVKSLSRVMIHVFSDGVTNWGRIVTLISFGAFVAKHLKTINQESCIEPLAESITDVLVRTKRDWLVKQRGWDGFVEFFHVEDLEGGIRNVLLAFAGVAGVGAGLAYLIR

[3] = target: Eukaryotic translation initiation factor 4E (Mus musculus, UniProt P63073); assay: eIF4E–eIF4G protein interaction inhibitors, dose response, biochemical, TR-FRET (AID 855); type: functional;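 also: potency for disrupting eIF4E binding to eIF4GI seen as loss of FRET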
Sequence of Eukaryotic translation initiation factor 4E (P63073 whole entry): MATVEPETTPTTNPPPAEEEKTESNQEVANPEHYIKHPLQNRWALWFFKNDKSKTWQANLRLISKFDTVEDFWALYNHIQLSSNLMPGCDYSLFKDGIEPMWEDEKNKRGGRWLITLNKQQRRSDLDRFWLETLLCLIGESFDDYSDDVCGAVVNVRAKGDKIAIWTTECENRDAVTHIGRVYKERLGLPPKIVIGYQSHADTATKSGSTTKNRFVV

[4] = ADAM10 inhibitors, peptide cleavage, dose response, biochemical, QFRET (AID 743254);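 also: ADAM10 enzyme with the DM2 quenched FRET peptide as substrate; EDANS fluorescence gain as the protease cuts the substrate; inhibitor potency against ADAM10 proteolytic activity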
[5] = target: Disintegrin and metalloproteinase domain-containing protein 17 (Homo sapiens, UniProt P78536); assay: ADAM17 protease inhibitors, dose response, counter-screen for ADAM10 exosite inhibitor project, biochemical, quenched FRET substrate (AID 743253)
Sequence of Disintegrin and metalloproteinase domain-containing protein 17 (P78536 whole entry, the tested form may be a part): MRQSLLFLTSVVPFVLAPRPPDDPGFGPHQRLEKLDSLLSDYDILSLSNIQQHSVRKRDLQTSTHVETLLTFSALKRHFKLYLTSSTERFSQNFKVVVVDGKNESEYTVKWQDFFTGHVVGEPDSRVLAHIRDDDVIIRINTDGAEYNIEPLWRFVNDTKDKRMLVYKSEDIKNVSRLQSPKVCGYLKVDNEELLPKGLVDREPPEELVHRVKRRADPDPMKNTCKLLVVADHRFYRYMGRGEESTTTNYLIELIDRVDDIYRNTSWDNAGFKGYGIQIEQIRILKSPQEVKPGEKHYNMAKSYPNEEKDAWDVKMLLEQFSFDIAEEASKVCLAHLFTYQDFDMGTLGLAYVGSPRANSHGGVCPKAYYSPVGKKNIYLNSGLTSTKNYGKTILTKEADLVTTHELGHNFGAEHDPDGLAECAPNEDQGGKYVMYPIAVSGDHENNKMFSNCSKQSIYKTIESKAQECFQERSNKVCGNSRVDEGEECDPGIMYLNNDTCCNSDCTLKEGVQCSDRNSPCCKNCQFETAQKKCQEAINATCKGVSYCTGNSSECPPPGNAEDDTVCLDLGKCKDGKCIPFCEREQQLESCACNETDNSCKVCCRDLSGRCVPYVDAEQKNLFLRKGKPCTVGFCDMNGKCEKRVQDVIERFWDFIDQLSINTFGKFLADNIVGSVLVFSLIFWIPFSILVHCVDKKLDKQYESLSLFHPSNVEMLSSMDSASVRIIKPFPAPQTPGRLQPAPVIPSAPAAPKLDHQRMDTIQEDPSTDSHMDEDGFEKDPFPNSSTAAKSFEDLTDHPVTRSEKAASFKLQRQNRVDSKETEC

cells = conditions: HEK293
[6] = target: T1, DNA repair protein RAD52 homolog (Homo sapiens, UniProt P43351); type: functional, biochemical
T1 sequence (P43351 whole entry): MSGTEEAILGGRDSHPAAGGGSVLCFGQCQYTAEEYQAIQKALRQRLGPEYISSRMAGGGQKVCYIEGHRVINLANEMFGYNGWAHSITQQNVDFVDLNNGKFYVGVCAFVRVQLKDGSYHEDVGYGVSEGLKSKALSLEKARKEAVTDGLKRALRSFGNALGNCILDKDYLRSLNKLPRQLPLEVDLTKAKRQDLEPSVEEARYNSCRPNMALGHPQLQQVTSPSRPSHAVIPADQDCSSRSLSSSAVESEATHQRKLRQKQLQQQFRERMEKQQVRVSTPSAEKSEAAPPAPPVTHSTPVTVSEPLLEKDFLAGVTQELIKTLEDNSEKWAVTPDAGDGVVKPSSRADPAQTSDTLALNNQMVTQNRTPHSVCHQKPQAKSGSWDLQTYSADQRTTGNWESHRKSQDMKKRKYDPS

[7] = target: COUP transcription factor 2 (Homo sapiens, UniProt P24468); assay: Luminescence-based cell-based high throughput dose response assay to identify inhibitors of COUP-TFII (NR2F2).; type: functional;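 also: HEK293 cells transiently cotransfected with COUP-TFII expression vector and reporter; luciferase reporter luminescence driven by COUP-TFII from the pX2-168 reporter plasmid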
Sequence of COUP transcription factor 2 (P24468 whole entry): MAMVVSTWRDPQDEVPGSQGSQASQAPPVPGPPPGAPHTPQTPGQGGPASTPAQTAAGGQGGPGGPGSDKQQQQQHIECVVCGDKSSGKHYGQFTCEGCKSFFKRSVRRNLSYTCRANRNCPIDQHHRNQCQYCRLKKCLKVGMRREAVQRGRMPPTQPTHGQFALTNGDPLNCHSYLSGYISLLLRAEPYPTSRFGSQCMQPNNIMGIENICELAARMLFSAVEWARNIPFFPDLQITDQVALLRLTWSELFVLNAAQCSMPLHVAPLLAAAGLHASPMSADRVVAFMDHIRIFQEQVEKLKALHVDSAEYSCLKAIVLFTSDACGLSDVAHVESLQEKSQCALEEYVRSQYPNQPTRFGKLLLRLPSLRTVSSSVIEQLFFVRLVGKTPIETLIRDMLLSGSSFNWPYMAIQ

Large T antigen = Large T antigen (Simian virus 40, UniProt P03070); type: functional, Betapolyomavirus macacae;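 also: Confirmatory-stage PubChem screen for compounds that inhibit SV40 T antigen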
Sequence of Large T antigen (P03070 whole entry): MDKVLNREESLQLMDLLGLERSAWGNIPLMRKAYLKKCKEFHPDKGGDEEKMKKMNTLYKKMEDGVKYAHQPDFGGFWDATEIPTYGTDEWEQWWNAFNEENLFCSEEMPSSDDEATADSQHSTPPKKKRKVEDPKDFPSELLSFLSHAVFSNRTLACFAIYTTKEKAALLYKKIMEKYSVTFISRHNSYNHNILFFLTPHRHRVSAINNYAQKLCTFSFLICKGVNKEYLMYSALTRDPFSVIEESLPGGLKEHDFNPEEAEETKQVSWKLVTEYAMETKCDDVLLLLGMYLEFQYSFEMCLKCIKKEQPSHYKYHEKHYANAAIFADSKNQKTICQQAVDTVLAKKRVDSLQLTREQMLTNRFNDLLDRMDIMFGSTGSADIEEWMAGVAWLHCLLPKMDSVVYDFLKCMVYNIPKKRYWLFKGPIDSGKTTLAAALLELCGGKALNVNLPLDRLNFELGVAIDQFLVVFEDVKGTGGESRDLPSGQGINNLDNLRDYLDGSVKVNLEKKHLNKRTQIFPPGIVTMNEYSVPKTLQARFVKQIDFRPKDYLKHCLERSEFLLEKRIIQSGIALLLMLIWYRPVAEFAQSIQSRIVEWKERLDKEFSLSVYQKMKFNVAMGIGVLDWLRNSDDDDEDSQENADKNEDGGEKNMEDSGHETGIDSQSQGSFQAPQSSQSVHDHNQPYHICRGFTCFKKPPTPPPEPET

[8] = target: T2, Intestinal-type alkaline phosphatase (Homo sapiens, UniProt P09923); assay: activation of human intestinal alkaline phosphatase – biochemical, dose response (AID 488873); type: functional
T2 sequence (P09923 whole entry): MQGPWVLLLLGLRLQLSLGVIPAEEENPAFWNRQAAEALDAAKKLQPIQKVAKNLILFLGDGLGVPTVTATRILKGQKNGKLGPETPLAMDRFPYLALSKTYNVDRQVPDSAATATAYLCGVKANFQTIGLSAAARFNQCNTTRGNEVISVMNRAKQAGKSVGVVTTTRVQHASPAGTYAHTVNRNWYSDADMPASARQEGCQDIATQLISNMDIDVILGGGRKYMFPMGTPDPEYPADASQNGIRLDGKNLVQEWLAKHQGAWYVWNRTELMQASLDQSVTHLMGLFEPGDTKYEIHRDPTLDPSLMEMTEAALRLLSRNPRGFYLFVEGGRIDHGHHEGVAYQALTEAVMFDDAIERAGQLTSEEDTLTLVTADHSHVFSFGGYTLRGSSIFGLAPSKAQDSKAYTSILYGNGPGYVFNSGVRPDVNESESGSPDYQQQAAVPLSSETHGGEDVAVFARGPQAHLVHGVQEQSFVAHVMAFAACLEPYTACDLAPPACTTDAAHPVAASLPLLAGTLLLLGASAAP

[9] = target: Intestinal-type alkaline phosphatase (Mus musculus, UniProt P24822); assay: PubChem AID 488785; type: functional
Sequence of Intestinal-type alkaline phosphatase (Mus musculus, UniProt P24822) (P24822 whole entry): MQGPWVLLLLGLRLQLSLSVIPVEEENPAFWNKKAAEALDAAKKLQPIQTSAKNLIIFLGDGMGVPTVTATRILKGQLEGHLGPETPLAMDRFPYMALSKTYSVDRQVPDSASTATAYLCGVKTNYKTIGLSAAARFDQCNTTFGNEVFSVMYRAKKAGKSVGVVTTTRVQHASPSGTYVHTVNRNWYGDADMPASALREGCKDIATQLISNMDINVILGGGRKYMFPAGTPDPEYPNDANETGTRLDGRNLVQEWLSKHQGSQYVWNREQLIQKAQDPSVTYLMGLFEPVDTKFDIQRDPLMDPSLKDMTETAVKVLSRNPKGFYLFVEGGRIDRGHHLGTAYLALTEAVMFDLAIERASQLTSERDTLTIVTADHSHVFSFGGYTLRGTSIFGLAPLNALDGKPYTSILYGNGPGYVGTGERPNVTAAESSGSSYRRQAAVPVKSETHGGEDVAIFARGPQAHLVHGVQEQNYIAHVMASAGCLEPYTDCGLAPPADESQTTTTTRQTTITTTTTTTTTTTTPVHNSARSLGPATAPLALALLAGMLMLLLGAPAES

[10] = target: T3, Alkaline phosphatase, tissue-nonspecific isozyme (Homo sapiens, UniProt P05186); assay: TNAP enzyme inhibition by screening hits, dose response, selectivity assay for mouse IAP inhibitor project, biochemical, human TNAP, uHTS hits (AID 488906); type: functional
T3 sequence (P05186 whole entry): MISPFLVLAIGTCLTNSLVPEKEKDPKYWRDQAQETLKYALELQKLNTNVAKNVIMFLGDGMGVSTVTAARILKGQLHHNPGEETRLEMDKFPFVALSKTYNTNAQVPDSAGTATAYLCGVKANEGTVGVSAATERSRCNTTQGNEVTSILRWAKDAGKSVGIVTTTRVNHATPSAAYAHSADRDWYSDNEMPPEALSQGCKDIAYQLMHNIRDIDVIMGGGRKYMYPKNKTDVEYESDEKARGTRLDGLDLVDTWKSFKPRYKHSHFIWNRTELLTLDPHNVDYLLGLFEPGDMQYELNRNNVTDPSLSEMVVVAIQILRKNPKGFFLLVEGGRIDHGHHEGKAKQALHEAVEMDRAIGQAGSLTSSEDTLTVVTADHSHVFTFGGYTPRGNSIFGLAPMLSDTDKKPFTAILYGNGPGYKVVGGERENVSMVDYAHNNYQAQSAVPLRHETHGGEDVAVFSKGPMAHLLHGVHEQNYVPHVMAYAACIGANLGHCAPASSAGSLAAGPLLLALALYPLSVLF

[11] = target: Ras and Rab interactor 1/Tyrosine-protein kinase ABL1 (Homo sapiens, UniProt P00519+Q13671); type: functional;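 also: biochemical TR-FRET dose-response test measuring inhibition of binding between Rin1 and Abl proteins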
Caspase-6 = target: T4, Caspase-6 (Homo sapiens, UniProt P55212); assay: human caspase-6 inhibitors, dose response, biochemical, VEID-R110 fluorescence, cherry-pick (AID 720632)
T4 sequence (P55212 whole entry): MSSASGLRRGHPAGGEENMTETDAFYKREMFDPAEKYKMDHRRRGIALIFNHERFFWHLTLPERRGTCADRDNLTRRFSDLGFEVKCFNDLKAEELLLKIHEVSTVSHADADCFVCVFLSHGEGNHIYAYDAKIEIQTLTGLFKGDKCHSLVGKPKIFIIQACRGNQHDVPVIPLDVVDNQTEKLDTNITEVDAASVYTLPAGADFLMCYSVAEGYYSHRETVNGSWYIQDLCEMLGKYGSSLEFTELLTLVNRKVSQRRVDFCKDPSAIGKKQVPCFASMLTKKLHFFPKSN

Caspase-7 = Caspase-7 (Homo sapiens, UniProt P55210); assay: human caspase-7 inhibitors, dose response, selectivity assay for caspase-6 inhibitor project, biochemical, DEVD-R110 fluorescence, cherry-pick (AID 743295)
Sequence of Caspase-7 (P55210 24-198 limits assumed): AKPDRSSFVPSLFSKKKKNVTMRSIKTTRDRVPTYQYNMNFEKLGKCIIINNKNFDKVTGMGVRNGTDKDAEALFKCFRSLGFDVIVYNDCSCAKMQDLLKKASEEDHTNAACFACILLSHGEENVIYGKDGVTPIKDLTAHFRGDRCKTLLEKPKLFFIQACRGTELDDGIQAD
Sequence of Caspase-7 (P55210 207-303 limits assumed): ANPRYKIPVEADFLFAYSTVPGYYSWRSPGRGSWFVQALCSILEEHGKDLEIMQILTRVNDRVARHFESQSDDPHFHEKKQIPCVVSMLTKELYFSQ

Caspase-3 = target: T5, Caspase-3 (Homo sapiens, UniProt P42574); assay: caspase-3 enzyme inhibitors, selectivity check, dose response, selectivity assay for caspase-6 allosteric inhibitor project, biochemical, fluorescence, cherry-picked samples (AID 743291)
T5 sequence (P42574 whole entry): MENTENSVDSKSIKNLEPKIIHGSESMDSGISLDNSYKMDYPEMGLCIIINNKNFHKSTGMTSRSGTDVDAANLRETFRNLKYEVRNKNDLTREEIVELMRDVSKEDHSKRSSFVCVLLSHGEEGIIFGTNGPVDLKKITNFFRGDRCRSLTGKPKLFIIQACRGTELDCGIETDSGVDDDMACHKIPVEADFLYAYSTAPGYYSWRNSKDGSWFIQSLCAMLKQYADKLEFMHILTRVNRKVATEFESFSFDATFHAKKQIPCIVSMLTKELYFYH

[12] = target: T2, Intestinal-type alkaline phosphatase; assay: inhibition of human intestinal alkaline phosphatase – biochemical, dose response (AID 488876); type: functional
[13] = target: T6, Small ubiquitin-related modifier 2 (Homo sapiens, UniProt P61956); assay: SUMO2–SIM peptide binding inhibitors, dose response, selectivity assay for SUMO1 interaction inhibitor project, biochemical, fluorescence polarization, uHTS hits (AID 624385); type: functional; conditions: read-out: IC50_Mean
T6 sequence (P61956 whole entry): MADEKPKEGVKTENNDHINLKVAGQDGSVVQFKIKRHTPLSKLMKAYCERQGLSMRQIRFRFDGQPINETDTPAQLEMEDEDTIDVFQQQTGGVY

[14] = target: T7, Small ubiquitin-related modifier 1 (Homo sapiens, UniProt P63165); assay: inhibitors of SUMO1 peptide binding, dose response, biochemical, fluorescence polarization, uHTS hits (AID 624382); type: functional; conditions: read-out: IC50_Mean
T7 sequence (P63165 whole entry): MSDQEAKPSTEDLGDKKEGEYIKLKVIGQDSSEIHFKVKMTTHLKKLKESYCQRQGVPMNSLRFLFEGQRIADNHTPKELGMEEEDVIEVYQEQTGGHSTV

[15] = target: T6, Small ubiquitin-related modifier 2; assay: inhibitors of SUMO2 protein-protein interaction, dose response, selectivity assay for SUMO1 interaction inhibitor project, biochemical, FRET, human SUMO2, uHTS hits (AID 624384); type: functional; conditions: read-out: IC50_Mean
[16] = target: T7, Small ubiquitin-related modifier 1; assay: inhibitors of SUMO1 partner interactions, dose response, biochemical, FRET (AID 624383); type: functional; conditions: read-out: IC50_Mean
[17] = target: T8, Rac GTPase-activating protein 1 (Homo sapiens, UniProt Q9H0H5); assay: MgcRacGAP GTPase-activating activity inhibitors, confirmation, biochemical, ADP Hunter fluorescence, primary and confirmatory (AID 624330); type: functional
T8 sequence (Q9H0H5 whole entry): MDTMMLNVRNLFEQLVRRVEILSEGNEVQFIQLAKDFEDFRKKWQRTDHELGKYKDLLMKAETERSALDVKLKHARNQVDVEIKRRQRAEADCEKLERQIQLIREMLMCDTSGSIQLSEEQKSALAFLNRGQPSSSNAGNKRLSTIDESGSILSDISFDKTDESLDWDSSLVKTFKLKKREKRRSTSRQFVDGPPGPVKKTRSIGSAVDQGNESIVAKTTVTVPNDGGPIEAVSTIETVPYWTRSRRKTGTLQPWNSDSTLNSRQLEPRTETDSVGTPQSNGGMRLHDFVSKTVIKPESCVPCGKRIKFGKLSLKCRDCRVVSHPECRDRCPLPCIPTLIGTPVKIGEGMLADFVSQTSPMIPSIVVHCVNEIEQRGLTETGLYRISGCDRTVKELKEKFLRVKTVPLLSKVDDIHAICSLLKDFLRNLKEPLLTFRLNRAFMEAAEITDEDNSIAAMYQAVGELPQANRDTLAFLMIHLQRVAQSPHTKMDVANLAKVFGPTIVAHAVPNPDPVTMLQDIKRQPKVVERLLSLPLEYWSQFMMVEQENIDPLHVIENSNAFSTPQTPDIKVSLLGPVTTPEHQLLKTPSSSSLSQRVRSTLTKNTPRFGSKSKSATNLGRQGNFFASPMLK

[18] = target: T9, Histone-lysine N-methyltransferase NSD2 (Homo sapiens, UniProt O96028); type: biochemical
T9 sequence (O96028 whole entry): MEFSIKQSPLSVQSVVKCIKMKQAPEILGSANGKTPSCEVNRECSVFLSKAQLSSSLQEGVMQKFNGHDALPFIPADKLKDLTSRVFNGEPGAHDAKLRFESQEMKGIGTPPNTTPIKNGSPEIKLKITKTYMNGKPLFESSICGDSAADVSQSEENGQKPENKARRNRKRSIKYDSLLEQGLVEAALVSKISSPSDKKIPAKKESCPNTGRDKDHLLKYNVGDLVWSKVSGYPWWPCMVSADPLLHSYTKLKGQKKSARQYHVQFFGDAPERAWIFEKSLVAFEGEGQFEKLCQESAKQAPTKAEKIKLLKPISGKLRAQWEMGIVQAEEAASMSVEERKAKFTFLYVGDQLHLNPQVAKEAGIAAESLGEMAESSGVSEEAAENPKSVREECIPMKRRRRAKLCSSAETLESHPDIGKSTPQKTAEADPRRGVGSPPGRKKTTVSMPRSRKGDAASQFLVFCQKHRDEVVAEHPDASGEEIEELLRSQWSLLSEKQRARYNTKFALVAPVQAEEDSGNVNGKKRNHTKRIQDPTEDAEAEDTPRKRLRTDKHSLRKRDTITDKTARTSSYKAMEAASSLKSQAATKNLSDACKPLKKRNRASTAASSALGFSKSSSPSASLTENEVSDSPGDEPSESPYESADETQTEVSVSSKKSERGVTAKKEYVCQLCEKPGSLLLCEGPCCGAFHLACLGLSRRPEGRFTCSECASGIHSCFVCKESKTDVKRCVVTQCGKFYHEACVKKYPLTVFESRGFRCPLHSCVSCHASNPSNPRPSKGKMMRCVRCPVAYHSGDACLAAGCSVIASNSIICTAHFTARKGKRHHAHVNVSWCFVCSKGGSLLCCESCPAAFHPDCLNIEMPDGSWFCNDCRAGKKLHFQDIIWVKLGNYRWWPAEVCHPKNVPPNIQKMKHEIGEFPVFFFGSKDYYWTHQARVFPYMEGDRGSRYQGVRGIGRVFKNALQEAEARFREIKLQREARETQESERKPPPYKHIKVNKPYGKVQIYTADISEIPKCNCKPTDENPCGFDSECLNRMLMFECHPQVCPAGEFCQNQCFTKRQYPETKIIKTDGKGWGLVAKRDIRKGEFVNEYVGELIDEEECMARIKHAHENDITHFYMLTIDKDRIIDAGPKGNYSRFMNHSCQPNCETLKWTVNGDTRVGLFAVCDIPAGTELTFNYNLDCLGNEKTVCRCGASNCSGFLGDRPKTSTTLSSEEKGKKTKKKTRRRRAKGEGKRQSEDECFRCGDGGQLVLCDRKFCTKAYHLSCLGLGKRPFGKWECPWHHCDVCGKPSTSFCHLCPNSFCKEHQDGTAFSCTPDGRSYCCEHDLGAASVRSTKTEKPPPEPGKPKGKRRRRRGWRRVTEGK

Caspase-8 = Caspase-8 (Homo sapiens, UniProt Q14790); assay: caspase-8 inhibition counter-screen, dose response, selectivity assay for caspase-6 inhibitor project, biochemical, Z-IETD-R110 fluorescence, cherry-picked samples (AID 743294)
Sequence of Caspase-8 (Q14790 217-374 limits assumed): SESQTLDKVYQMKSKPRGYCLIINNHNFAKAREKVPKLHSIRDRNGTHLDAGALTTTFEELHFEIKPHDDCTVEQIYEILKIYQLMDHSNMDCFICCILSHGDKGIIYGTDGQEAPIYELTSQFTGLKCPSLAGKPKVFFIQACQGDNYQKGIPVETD
Sequence of Caspase-8 (Q14790 385-479 limits assumed): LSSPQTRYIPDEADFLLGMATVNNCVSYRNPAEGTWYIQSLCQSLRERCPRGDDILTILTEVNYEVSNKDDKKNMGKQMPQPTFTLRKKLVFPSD

[19] = HepG2 cell cytotoxicity, dose response, cytotoxicity control, ATP luminescence, cherry-pick, set 6 (AID 1053125); type: functional, cell-based

## O=C(Cn1nc(-c2ccc(Cl)cc2)ccc1=O)NCC1COCCO1 (stereo not given)
[1]
  AC50: > 30 µM (inactive)

## Oc1cc2c(cc1C(c1ccc(Cl)c(Cl)c1)N1CCCC1)OCO2 (stereo not given)
[2]
  IC50: 4.76 µM (not active)
[3]
  IC50: 50 µM (inactive)
[4]
  IC50: 4.72 µM (active)
[5]
  IC50: 20 µM (inactive)

## C1CCNCC1.N#CC1=C(N)Oc2cc(O)ccc2C1c1ccc2c(c1)OCO2 (stereo not given)
cells
  AC50: > 52 µM (inactive)

## NC(S)=NN=C1c2cc(OCCN3CCOCC3)ccc2-c2ccc(OCCN3CCOCC3)cc21
[6]
  AC50: 1.07 µM (active)
[7]
  IC50: 5.24 µM (active)

## O=C(CCO)c1ccc(O)cc1
Large T antigen
  IC50: 28.8 µM (active)
[2]
  IC50: 5.16 µM (active)
[8]
  EC50: 11.3 µM (active)
[9]
  IC50: > 100 µM (inactive)
[10]
  IC50: > 100 µM (inactive)
[11]
  IC50: 11.9 µM (inactive)
Caspase-6
  AC50: 1.32 µM (active)
Caspase-7
  AC50: 9.65 µM (active)
Caspase-3
  AC50: 31.7 µM (active)

## O=C(COC(=O)c1ccccc1)Nc1ncc([N+](=O)[O-])s1
[9]
  IC50: < 0.195 µM (active)
[10]
  IC50: 1.06 µM (active)
[12]
  IC50: 80.6 µM (active)
[13]
  IC50: 14.7 µM (active)
[14]
  IC50: 9.39 µM (active)
[15]
  IC50: > 66 µM (inactive)
[16]
  IC50: 51.7 µM (inactive)
[17]
  IC50: 50.2 µM (active)
Caspase-6
  AC50: 0.951 µM (active)
[18]
  AC50: 2.74 µM (active)
Caspase-7
  AC50: 16.3 µM (active)
Caspase-8
  AC50: 61.3 µM (active)

## CCOC(=O)c1cc2c(=O)n3ccccc3nc2n(C(C)C)/c1=N/C(=O)c1ccco1
[19]
  AC50: > 52 µM (inactive)
